Data published in patent US20260138976A1 (Hoffmann-La Roche Inc., priority 2022, published 2026).

Legend:
primary human T-cells [1] = test: IL2 secretion measurements (24 h, CD3-stimulated T-cells, PBS counter screen); type: cell-based; conditions: for Emax IL2 (% activation): CD3 condition, normalised to DMSO (neutral) and 20 μM reference compound A1 = 100%; for EC50: Homo sapiens, T-cell, CD3-stimulated primary human T-cells, IL2 secretion, fitted sigmoidal curve, read-out: Tcell IL2 CD3 EC50
Description: (§1) As readouts for T-cell activation, 1L2 secretion after 24 hours and proliferation after 5 days was measured. Increases in IL2 secretion and proliferation upon compound treatment were assessed as the % of the maximum of reference compound A1. WO 2016/139181 discloses reference compound A1 as example 70. As a counter screen and to make sure that no unwanted TCR-independent activation was triggered, PBS conditions were run for all compounds.
Expanded primary human T-cells were thawed and cultured in RPMI 1640 (Gibco, #61870-010)+5% human serum (HS, Sigma, #H3667)+1 mM Sodium Pyruvate (Gibco, #11360-039)+50 μM 2-mercaptoethanol (Gibco, #31350-010) and 1× Pen-Strep (Life Technologies, #15140122) medium at density of 2 Mio/ml for 3 hours in 5% CO2, 37° C. and 95% humidity. For coating of plates, […] or PBS++ with CD3 antibody (concentration depending on donor and determined by CD3 titrations) was added 100 μl/well to Poly-D Lysine coated 96-well plates. Plates were sealed and incubated at room temperature for 3 hours on a table-top rocking platform. After incubation, plates were washed once with PBS−− and filled with 40 μl/well culture medium only. Compounds were then added (see next section) to medium only plates. After 3 hours of culturing the T-cells, cells were filtered through a cell strainer (Miltenyi Biotech, #130-041-407), counted again and concentration was adjusted to 1.25 Mio/ml.
Cells were then seeded 80 μl/well to the 40 μl/well including dispensed compounds according to plate layout. By adding cells, compounds were further diluted 1:3, and resulting in 100 k cells/120 μl/well. After 24 hours 40 μl of supernatant was collected carefully from the top while not disturbing the cells and transferred into a round bottom 96 well plate. Collected and frozen supernatant was used for detection of IL2 using the IL-2 Human ProQuantum Immunoassay Kit (Invitrogen) or using the Human IL-2 ELISA Kit (Thermo Fisher).
(§2) Compounds were added in a 5 or 6 pt dose response with the Tecan D300e Digital Dispenser, all conditions 3 times more concentrated than the end-concentration, since cells are added afterwards (80 μl cells to 40 μl prepared medium with treatment). The DR was starting at 20 μM or 10 μM final top concentration and a dilution factor of 3.333. The positive control was the reference compound A1 that was added in a dose response as well, additionally to 3 wells of only 20 μM representing the positive stimulator control. All wells were normalized with DMSO to a final concentration of 0.6% (0.2% end-concentration).
The immunoassay is done following the manufacturer's manual (Invitrogen, #A35603). Additional information: For the immunoassay, MicroAmp™ EnduraPlate™ Optical 384-Well plates are used. Frozen supernatant is thawed and centrifuged for 5 minutes at 1000×g, both steps at 4° C. After centrifugation, required sample amount is taken from the top, and in a separate LightCycler V-bottom plate (working plate) diluted with assay dilution buffer, dilution factor depending on the PBS or CD3 condition but at least 1:3. IL-2 standard and blanks are prepared in the same V-bottom plate, standard with a range of 0.0128-5000 pg/ml (extended version). After preparation, 5 μl of sample dilutions or standard/blanks are transferred to the optical 384-well plate (assay plate) and the 10 μl reaction protocol is being followed. For measurement, the QuantStudio 12K Flex system is used. Raw data is extracted and IL-2 concentrations are calculated with the Thermo Fisher online app (apps.thermofisher.com/apps/proquantum).
ELISA is done following the manufacturer's manual (Thermo Fisher Scientific, #88-7025-88). Additional information: For the ELISA Nunc MaxiSorp 96 well plates are used. Frozen supernatant is thawed and centrifuged for 5 minutes at 1000×g, both steps at 4° C. […]

primary human T-cells [2] = test: Proliferation assay (5 days, CellTiter-Glo, CD3-stimulated T-cells); type: cell-based; conditions: for Emax proliferation (% activation): CD3 condition, normalised to DMSO (neutral) and 20 μM reference compound A1 = 100%; for EC50: Homo sapiens, T-cell, 120 h, CD3-stimulated primary human T-cells, 5 days, CellTiter-Glo, fitted sigmoidal curve, read-out: Tcell Proliferation CD3 EC50
Description: as §1
Expanded primary human T-cells are thawed and cultured in RPMI 1640 (Gibco, #61870-010)+5% human serum (HS, Sigma, #H3667)+1 mM Sodium Pyruvate (Gibco, #11360-039)+50 μM 2-mercaptoethanol (Gibco, #31350-010) and 1× Pen-Strep (Life Technologies, #15140122) medium at density of 2 Mio/ml for 3 hours in 5% CO2, 37° C. and 95% humidity. For coating of plates, PBS++ only or PBS++ with CD3 antibody (concentration depending on donor and determined by CD3 titrations) is added 100 μl/well to Poly-D Lysine coated 96-well plates. Plates are sealed and incubated at room temperature for 3 hours on a table-top rocking platform. After incubation, plates are washed once with PBS−− and filled with 40 μl/well culture medium only. Compounds are then added (see next section) to medium only plates. After 3 hours of culturing the T-cells, cells are filtered through a cell strainer (Miltenyi Biotech, #130-041-407), counted again and concentration is adjusted to 1.25 Mio/ml.
Cells are then seeded 80 μl/well to the 40 μl/well including dispensed compounds according to plate layout. By adding cells, compounds are further diluted 1:3, and resulting in 100 k cells/120 μl/well. After 48 hours 40 μl of supernatant is collected carefully from the top while not disturbing the cells. Cells are assessed for proliferation 5 days later by measuring […] using CellTiterGlo (Promega).
as §2
After 5 days, for detection of ATP which is directly proportional to the number of cells present per well, the CellTiter-Glo® 2.0 Reagent is used. After visual control for toxicity or precipitations of the tested compounds, the plates are equilibrated to room temperature for 45 minutes. CellTiter-Glo® 2.0 Reagent is equilibrated to room temperature as well. After equilibration, an equal amount of CellTiter-Glo reagent is added to the cells (80 μl/well) with an electronic multichannel pipette. Plates are placed on a rocking platform for 15 minutes at room temperature. After incubation, the bottom of the plates is sealed with backing tape. Luminescence is measured with PHERAstar FSX (interval time 0.5 sec, gain 3000, focal height 15 mm) and exported as CSV file for analysis in Genedata screener.
CD3 and PBS plates were analysed separately in Genedata Screener using Roche Normalization PCT_POS_CTRL with DMSO set as Neutral Control and 20 μM of the reference compound A1 set as Stimulator Control/100%.
For CD3 conditions EC50 and Emax of the fitted sigmoidal curve were reported. If no curve could be fitted, the EC50 was reported as blank field and the Emax was based on individual data points. […] Compounds which activate unstimulated cells (see IL2 measurements) or compounds which negatively affected viability were flagged.

SMILES	Emax IL2 (% activation) (primary human T-cells [1])	EC50 (primary human T-cells [1])	Emax proliferation (% activation) (primary human T-cells [2])	EC50 (primary human T-cells [2])
CC(C)(C)c1nnc(-c2ccc3c(c2)N(Cc2ccc(-c4nc(C(F)(F)F)no4)cc2)C(=O)[C@@H](N)CS3(=O)=O)o1 [Example 26, (3R)-3-amino-7-(5-tert-butyl-1,3,4-oxadiazol-2-yl)-1,1-dioxo-5-[[4-[3-(trifluoromethyl)-1,2,4-oxadiazol-5-yl]phenyl]methyl]-2,3-dihydro-1λ^6,5-benzothiazepin-4-one]	155 % activation	1600 nM	184 % activation	302 nM
CC(C)(C)c1nnc(-c2ccc3c(c2)N(Cc2ccc(-c4nc(C5CC5)no4)cc2)C(=O)[C@@H](N)CS3(=O)=O)o1 [Example 29, (3R)-3-amino-7-(5-tert-butyl-1,3,4-oxadiazol-2-yl)-5-[[4-(3-cyclopropyl-1,2,4-oxadiazol-5-yl)phenyl]methyl]-1,1-dioxo-2,3-dihydro-1λ^6,5-benzothiazepin-4-one]	156 % activation	956 nM	208 % activation	844 nM
CC(C)(C)c1nnc(-c2ccc3c(c2)N(Cc2ccc(-c4cc(C(F)(F)F)on4)cc2)C(=O)[C@@H](N)CS3(=O)=O)o1 [Example 30, (3R)-3-amino-7-(5-tert-butyl-1,3,4-oxadiazol-2-yl)-1,1-dioxo-5-[[4-[5-(trifluoromethyl)isoxazol-3-yl]phenyl]methyl]-2,3-dihydro-1λ^6,5-benzothiazepin-4-one]	117 % activation	3510 nM	139 % activation	4360 nM
CC(C)(C)c1nnc(-c2ccc3c(c2)N(Cc2ccc(-c4cc(C(F)(F)F)no4)cc2)C(=O)[C@@H](N)CS3(=O)=O)o1 [Example 31, (3R)-3-amino-7-(5-tert-butyl-1,3,4-oxadiazol-2-yl)-1,1-dioxo-5-[[4-[3-(trifluoromethyl)isoxazol-5-yl]phenyl]methyl]-2,3-dihydro-1λ^6,5-benzothiazepin-4-one]	133 % activation	906 nM	83 % activation	349 nM
CC(C)(C#N)c1nnc(-c2ccc3c(c2)N(Cc2ccc(-c4ccc(C(F)F)cn4)cc2)C(=O)[C@@H](N)CS3(=O)=O)o1 [Example 40, 2-[5-[(3R)-3-amino-5-[[4-[5-(difluoromethyl)-2-pyridyl]phenyl]methyl]-1,1,4-trioxo-2,3-dihydro-1λ^6,5-benzothiazepin-7-yl]-1,3,4-oxadiazol-2-yl]-2-methyl-propanenitrile]	105 % activation	3790 nM	118 % activation	2480 nM
N[C@H]1CS(=O)(=O)c2ccc(-c3nnc(C4(N)CCCCC4)o3)cc2N(Cc2ccc(-c3noc(C4CCC(F)(F)C4)n3)cc2)C1=O (stereo partly drawn) [Example 44, (3R)-3-amino-7-[5-(1-aminocyclohexyl)-1,3,4-oxadiazol-2-yl]-5-[[4-[5-(3,3-difluorocyclopentyl)-1,2,4-oxadiazol-3-yl]phenyl]methyl]-1,1-dioxo-2,3-dihydro-1λ^6,5-benzothiazepin-4-one]	112 % activation	1040 nM	124 % activation	741 nM
CC(C)(C#N)c1nnc(-c2ccc3c(c2)N(Cc2ccc(-c4nc(C5CC5)no4)cc2)C(=O)[C@@H](N)CS3(=O)=O)o1 [Example 139, 2-[5-[(3R)-3-amino-5-[[4-(3-cyclopropyl-1,2,4-oxadiazol-5-yl)phenyl]methyl]-1,1,4-trioxo-2,3-dihydro-1λ^6,5-benzothiazepin-7-yl]-1,3,4-oxadiazol-2-yl]-2-methyl-propanenitrile]			93 % activation	1020 nM
N#CC1(c2nnc(-c3ccc4c(c3)N(Cc3ccc(-c5ccc(OC(F)(F)F)cn5)cc3)C(=O)[C@@H](N)CS4(=O)=O)o2)CCOC1 (stereo partly drawn) [Example 177, 3-[5-[(3R)-3-amino-1,1,4-trioxo-5-[[4-[5-(trifluoromethoxy)-2-pyridyl]phenyl]methyl]-2,3-dihydro-1λ^6,5-benzothiazepin-7-yl]-1,3,4-oxadiazol-2-yl]tetrahydrofuran-3-carbonitrile]			101 % activation	806 nM
N[C@H]1CS(=O)(=O)c2ccc(-c3nnc(C4(N)CC(F)(F)C4)o3)cc2N(Cc2ccc(-c3ccc(OC(F)(F)F)cn3)cc2)C1=O [Example 179]			106 % activation	936 nM
CN1CCC(C#N)(c2nnc(-c3ccc4c(c3)N(Cc3ccc(-c5ccc(OC(F)(F)F)cn5)cc3)C(=O)[C@@H](N)CS4(=O)=O)o2)CC1 [Example 180, 4-[5-[(3R)-3-amino-1,1,4-trioxo-5-[[4-[5-(trifluoromethoxy)-2-pyridyl]phenyl]methyl]-2,3-dihydro-1λ^6,5-benzothiazepin-7-yl]-1,3,4-oxadiazol-2-yl]-1-methyl-piperidine-4-carbonitrile]			102 % activation	651 nM
